Key:
[1] = target: T1, menin/MLL (Gal4-Menin and MLL1-46-VP16) in HEK293 cells (Homo sapiens, UniProt O00255); experiment: Mammalian cellular two-hybrid assay in HEK293 cells (Assay 2, cell assay); assay type: cell-based; conditions: Gal4-Menin/MLL1-46-VP16 two-hybrid, NanoLuc luciferase reporter, 16-18 h
T1 construct: expressed in transfected cells; host or cells: HEK293 (ATCC)
Procedure: Potencies of inhibitor compounds against menin/MLL were tested in a mammalian cellular two-hybrid assay system. HEK293 cells (American Type Culture Collection (ATCC); Manassas, Va.) were co-transfected with three plasmids: one encoding Gal4-Menin (200 ng per 10^6 cells), another encoding MLL1-46-VP16 (100 ng per 10^6 cells), and a reporter plasmid pNL3.3-4×UAS (500 ng per 10^6 cells) encoding secreted NanoLuc® luciferase (Promega) with the upstream 4×UAS repeats for Gal4 binding. Transfection was performed in Opti-MEM® media using Lipofectamine® LTX with Plus™ Reagent (ThermoFisher Scientific) according to manufacturer's protocol. Cells were incubated with transfection reagents at 37° C. 5% CO2 for 5-6 h, harvested by trypsinization and centrifugation at 300×g for 5 min and resuspended in Gibco® DMEM media (phenol red-free, no antibiotics) containing 10% delipidated fetal bovine serum (FBS) (ThermoFisher Scientific). Concentration of cells in the media was adjusted to 3.5×10^5 cells/ml, and 100 μl of the cell suspension was dispensed into each well of 96-well Costar™ black clear bottom cell culture plates (Fisher Scientific). Tested compounds were added as 100 μL of 2× solutions in the media. Final concentration of DMSO was 0.1% in all wells. The cells were incubated with tested compounds at 37° C. 5% CO2 for 16-18 h. At the end of the incubation, 40 μL of the conditioned media from each well was transferred into each well of 96-well Costar™ black half-area plates (Fisher Scientific), to which 40 μl of 2× reconstituted NanoGlo® luciferase assay reagent (Promega) was added and thoroughly mixed on a microshaker for 2-3 min. Remaining media in the culture plates was removed by emptying the wells and blotting the plates on filter paper. The cells were lysed with 1× CellTiter-Glo® Luminescent Cell Viability Assay reagent (Promega) for assessing toxicity of the tested compounds. Both, Nano-Glo® and CellTiter-Glo® luminescence intensities were measured on EnVision® multilabel plate reader (PerkinElmer). Percent inhibition values were calculated based on Nano-Glo® luciferase activity observed with the tested compounds vs. DMSO control and commercially available menin inhibitor MI-2-2 (4-(4-(5,5-Dimethyl-4,5-dihydrothiazol-2-yl)piperazin-1-yl)-6-(2,2,2-trifluoroethyl)thieno[2,3-d]pyrimidine) (EMD Millipore, Cat. No. 444825) incubated with cells at 5 μM. These percent inhibition values were regressed against compound concentrations in the assay using non-linear 4-parameter logit curve fitting (XLFit, IDBS). Half maximal inhibitory concentrations (IC50) were calculated as the parameters of the fit corresponding to the inflection points on semi-logarithmic dose-response curves.

[2] = target: T2, wild-type menin / MLL-AF9 fusion protein (Homo sapiens, UniProt O00255); experiment: AlphaLISA menin/MLL binding assay, wild-type menin (Assay 1); conditions: biotinylated wild-type menin 5 nM, MLL-AF9-FLAG lysate
T2 construct: made in house; host or cells: E. coli (menin); HEK293 cleared lysate (MLL-AF9-FLAG)
T2 sequence (O00255 1-610): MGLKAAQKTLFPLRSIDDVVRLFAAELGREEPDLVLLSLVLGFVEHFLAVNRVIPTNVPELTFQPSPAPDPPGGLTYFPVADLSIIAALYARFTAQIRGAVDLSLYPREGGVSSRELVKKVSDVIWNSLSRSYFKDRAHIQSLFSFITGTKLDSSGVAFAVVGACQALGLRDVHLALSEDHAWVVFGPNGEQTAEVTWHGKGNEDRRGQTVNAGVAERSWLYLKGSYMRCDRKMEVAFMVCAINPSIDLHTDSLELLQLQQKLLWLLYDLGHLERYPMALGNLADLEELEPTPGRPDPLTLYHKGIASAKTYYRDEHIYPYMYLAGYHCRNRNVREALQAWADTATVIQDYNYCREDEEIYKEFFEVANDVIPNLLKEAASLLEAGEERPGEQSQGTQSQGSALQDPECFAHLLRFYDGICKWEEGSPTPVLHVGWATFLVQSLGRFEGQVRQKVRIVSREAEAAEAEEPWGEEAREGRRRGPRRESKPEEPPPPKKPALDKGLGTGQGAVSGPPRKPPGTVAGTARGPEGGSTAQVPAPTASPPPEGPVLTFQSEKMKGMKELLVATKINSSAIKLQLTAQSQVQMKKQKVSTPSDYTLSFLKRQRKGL
Procedure, shortened: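 Biotinylated wild-type or mutated menin (5 nM, E. coli-expressed) was preincubated 30 min at RT with compound and HEK293 lysate containing MLL1-1,396–AF9 1-92–FLAG. Buffer was 50 mM Tris-HCl pH 7.4, 5% DMSO, 50 mM NaCl, 0.01% BSA, 1 mM DTT. Anti-FLAG acceptor and streptavidin donor beads (10 μg/mL each) were then added for 60 min. IC50 came from a four-parameter fit of the Alpha signal inhibition.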

T1 sequence (P04386 1-147 partner limits assumed, species assumed, one chain of several): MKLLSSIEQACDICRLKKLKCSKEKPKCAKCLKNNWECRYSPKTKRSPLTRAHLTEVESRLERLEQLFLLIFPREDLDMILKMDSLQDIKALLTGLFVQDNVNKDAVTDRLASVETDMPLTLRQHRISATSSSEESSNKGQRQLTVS

IC50 [1] | IC50 [2] | Compound
0.1 to 1 µM | < 0.1 µM | CS(=O)(=O)N[C@H]1CC[C@@H](CN2CCC3(CCN(c4ncnc5sc(CC(F)(F)F)cc45)C3)C2)CC1 (some centres unmarked) [Example 49, N-((1s,4s)-4-((7-(6-(2,2,2-trifluoroethyl)thieno[2,3-d]pyrimidin-4-yl)-2,7-diazaspiro[4.4]nonan-2-yl)methyl)cyclohexyl)methanesulfonamide]
0.1 to 1 µM | < 0.1 µM | Cc1c(CN2CCC3(CCN(c4ncnc5ccc(CC(F)(F)F)cc45)C3)C2)ccc2[nH]c(C#N)cc12 (centres unmarked) [Example 90, 4-methyl-5-((7-(6-(2,2,2-trifluoroethyl)quinazolin-4-yl)-2,7-diazaspiro[4.4]nonan-2-yl)methyl)-1H-indole-2-carbonitrile]
0.1 to 1 µM | < 0.1 µM | CS(=O)(=O)Nc1ccc(CN2CCC3(CCN(c4ncnc5sc(CC(F)(F)F)cc45)C3)C2)cc1 (centres unmarked) [Example 38, N-(4-((7-(6-(2,2,2-trifluoroethyl)thieno[2,3-d]pyrimidin-4-yl)-2,7-diazaspiro[4.4]nonan-2-yl)methyl)phenyl)methanesulfonamide]
≥ 1 µM | 0.1 to 1 µM | CC(C)CN1CC2(CCN(c3ncnc4sc(CC(F)(F)F)cc34)CC2)C1 [Example 2, 4-(2-isobutyl-2,7-diazaspiro[3.5]nonan-7-yl)-6-(2,2,2-trifluoroethyl)thieno[2,3-d]pyrimidine]
0.1 to 1 µM | < 0.1 µM | CS(=O)(=O)N[C@H]1CC[C@H](CN2CCC3(CC2)CN(c2ncnc4sc(CC(F)(F)F)cc24)C3)CC1 [Example 106, N-((1r,4r)-4-((2-(6-(2,2,2-trifluoroethyl)thieno[2,3-d]pyrimidin-4-yl)-2,7-diazaspiro[3.5]nonan-7-yl)methyl)cyclohexyl)methanesulfonamide]
0.1 to 1 µM | < 0.1 µM | OC1CCC(CN2CC3(C2)CN(c2ncnc4sc(CC(F)(F)F)cc24)C3)CC1 (centres unmarked) [Example 76, 4-((6-(6-(2,2,2-trifluoroethyl)thieno[2,3-d]pyrimidin-4-yl)-2,6-diazaspiro[3.3]heptan-2-yl)methyl)cyclohexan-1-ol]
0.1 to 1 µM | < 0.1 µM | CC(=O)Nc1ccc(CN2CCC3(CCN(c4ncnc5sc(CC(F)(F)F)cc45)C3)C2)c(Cl)c1 (centres unmarked) [Example 44, N-(3-chloro-4-((7-(6-(2,2,2-trifluoroethyl)thieno[2,3-d]pyrimidin-4-yl)-2,7-diazaspiro[4.4]nonan-2-yl)methyl)phenyl)acetamide]
≥ 1 µM | 0.1 to 1 µM | CCC(C)CN1CC2(CCN(c3ncnc4sc(CC(F)(F)F)cc34)CC2)C1 (centres unmarked) [Example 22, 4-(2-(2-methylbutyl)-2,7-diazaspiro[3.5]nonan-7-yl)-6-(2,2,2-trifluoroethyl)thieno[2,3-d]pyrimidine]
0.1 to 1 µM | < 0.1 µM | FC(F)(F)Cc1cc2c(N3CC4(CN(CC5CCCCC5)C4)C3)ncnc2s1 [Example 69, 4-(6-(cyclohexylmethyl)-2,6-diazaspiro[3.3]heptan-2-yl)-6-(2,2,2-trifluoroethyl)thieno[2,3-d]pyrimidine]
≥ 1 µM | 0.1 to 1 µM | N#Cc1ccc2c(CN3CC4(CCN(c5ncnc6sc(CC(F)(F)F)cc56)CC4)C3)c[nH]c2c1 [Example 20, 3-((7-(6-(2,2,2-trifluoroethyl)thieno[2,3-d]pyrimidin-4-yl)-2,7-diazaspiro[3.5]nonan-2-yl)methyl)-1H-indole-6-carbonitrile]
≥ 1 µM | 0.1 to 1 µM | CS(=O)(=O)Cc1ccc(CC(=O)N2CC3(C2)CN(c2ncnc4sc(CC(F)(F)F)cc24)C3)cc1 [Example 61, 2-(4-((methylsulfonyl)methyl)phenyl)-1-(6-(6-(2,2,2-trifluoroethyl)thieno[2,3-d]pyrimidin-4-yl)-2,6-diazaspiro[3.3]heptan-2-yl)ethan-1-one]
0.1 to 1 µM | < 0.1 µM | Cc1cc(NS(C)(=O)=O)ccc1CN1CCC2(CCN(c3ncnc4sc(CC(F)(F)F)cc34)C2)C1 (centres unmarked) [Example 54, N-(3-methyl-4-((7-(6-(2,2,2-trifluoroethyl)thieno[2,3-d]pyrimidin-4-yl)-2,7-diazaspiro[4.4]nonan-2-yl)methyl)phenyl)methanesulfonamide]
0.1 to 1 µM | < 0.1 µM | O=c1[nH]c2ccc(CN3CCC4(CCN(c5ncnc6sc(CC(F)(F)F)cc56)C4)C3)cc2o1 (centres unmarked) [Example 40, 6-((7-(6-(2,2,2-trifluoroethyl)thieno[2,3-d]pyrimidin-4-yl)-2,7-diazaspiro[4.4]nonan-2-yl)methyl)benzo[d]oxazol-2(3H)-one]
0.1 to 1 µM | < 0.1 µM | CS(=O)(=O)Nc1ccc(CN2CCC3(CC2)CN(c2ncnc4sc(CC(F)(F)F)cc24)C3)cc1 [Example 97, N-(4-((2-(6-(2,2,2-trifluoroethyl)thieno[2,3-d]pyrimidin-4-yl)-2,7-diazaspiro[3.5]nonan-7-yl)methyl)phenyl)methanesulfonamide]
< 0.1 µM | < 0.1 µM | Cc1c(CN2CCC3(CCN(c4ncnc5sc(CC(F)(F)F)cc45)C3)C2)ccc2[nH]c(C#N)cc12 (single isomer, unassigned) [Example 30a, 4-methyl-5-((7-(6-(2,2,2-trifluoroethyl)thieno[2,3-d]pyrimidin-4-yl)-2,7-diazaspiro[4.4]nonan-2-yl)methyl)-1H-indole-2-carbonitrile]
0.1 to 1 µM | < 0.1 µM | FC(F)(F)Cc1cc2c(N3CCC4(CCN(Cc5ccc6[nH]ccc6c5)C4)C3)ncnc2s1 (centres unmarked) [Example 28, 4-(7-((1H-indol-5-yl)methyl)-2,7-diazaspiro[4.4]nonan-2-yl)-6-(2,2,2-trifluoroethyl)thieno[2,3-d]pyrimidine]
0.1 to 1 µM | < 0.1 µM | CC(=O)Nc1ccc(CN2CCC3(CCN(c4ncnc5sc(CC(F)(F)F)cc45)C3)C2)c(F)c1 (centres unmarked) [Example 45, N-(3-fluoro-4-((7-(6-(2,2,2-trifluoroethyl)thieno[2,3-d]pyrimidin-4-yl)-2,7-diazaspiro[4.4]nonan-2-yl)methyl)phenyl)acetamide]
≥ 1 µM | 0.1 to 1 µM | FC(F)(F)Cc1cc2c(N3CC4(CCN(CC5CCOCC5)CC4)C3)ncnc2s1 [Example 99, 4-(7-((tetrahydro-2H-pyran-4-yl)methyl)-2,7-diazaspiro[3.5]nonan-2-yl)-6-(2,2,2-trifluoroethyl)thieno[2,3-d]pyrimidine]

Compound | IC50 [1] | IC50 [2]
Cn1c(=O)[nH]c2cc(CN3CCC4(CCN(c5ncnc6sc(CC(F)(F)F)cc56)C4)C3)ccc21 (centres unmarked) [Example 41, 1-methyl-5-((7-(6-(2,2,2-trifluoroethyl)thieno[2,3-d]pyrimidin-4-yl)-2,7-diazaspiro[4.4]nonan-2-yl)methyl)-1H-benzoldlimidazol-2(3H)-one] | < 0.1 µM | < 0.1 µM

Reference: patent publication US20190010167A1, “INHIBITORS OF THE MENIN-MLL INTERACTION” (Vitae Pharmaceuticals, Inc., priority 2015, published 2019)
